According to patent US9073858B2, “Methods of targeted drug development” (priority 2010, dated 2015):
Like-named read-outs stand apart in the source and are kept apart here.

Tests used:
[1] = Stability on incubation with human liver microsomes (HLM); assay type: in vitro ADME; conditions: percentage left after incubation with human liver microsomes for 30 minutes
How it was run: (§1)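 Values are percent compound remaining after 30 min incubation with mouse or human liver microsomes.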

[2] = Stability on incubation with mouse liver microsomes (MLM); assay type: in vitro ADME; conditions: percentage left after incubation with mouse liver microsomes for 30 minutes
How it was run: as §1

[3] = system: EGF receptor-mediated cell proliferation; test: Combinatorial studies with known EGFR inhibitors, median effect analysis (MTT assay)
Method: Studies were initiated to evaluate the ability of various compounds disclosed herein to synergize with several compounds known to inhibit the function of the EGF receptor in a cell proliferation assay (MTT assay).
The EGFR inhibitor and AD4 compound dilutions were then mixed 1:1 in a 96 well plate. 50 μl of the mix was then added to the cell plate.
A shifting of the inhibitor curve to the left indicates an increase in the effectiveness of the AD4-compound.

[4] = system: caspase 3,7 activity in A431 cells; test: cells; conditions: for Emax at 8 µM / Emax at 16 µM: Homo sapiens, A-431, read-out: Total Apoptosis (increase in caspase 3,7 activity as percentage of the maximal response); for Ability to Synergize with Tarceva: caspase 3,7 activity, A431 cells
Text: As described below, the capsase 3,7 assay uses the Promega Caspase-Glo 3/7 assay kit (cat no. G8092).
The Caspase-Glo® 3/7 Assay is a luminescent assay that measures caspase-3 and −7 activities in purified enzyme preparations or cultures of adherent or suspension cells. The assay provides a proluminescent caspase-3/7 substrate, which contains the tetrapeptide sequence, DEVD. This substrate is cleaved to release aminoluciferin, a substrate of luciferase used in the production of light. The Caspase-Glo® 3/7 Reagent has been optimized for caspase activity, luciferase activity and cell lysis. The addition of the single Caspase-Glo® 3/7 Reagent in an “add-mix-measure” format results in cell lysis, followed by caspase cleavage of the substrate and generation of a “glow-type” luminescent signal. The Caspase-Glo® 3/7 Assay is designed for use with multiwell plate formats, making it ideal for automated high-throughput screening of caspase activity or apoptosis.
Staurosporine was used as a positive control.
For the capsase 3,7 assay, cells were incubated for 5.5 hrs at 37° C., 5% CO2. The plate was removed from the incubator and equilibrated to room temperature. After 30 min, 25 μl Caspase 3/7 detection reagent (Promega Caspase-Glo 3/7 assay kit, cat no. G8092) was added to each well. The plate was covered with tin foil and shaken on a plate shaker at speed 4 for 3 min. The plate was then incubated for an additional 60 min at room temperature. Luminescence was detected using the PolarStar plate reader.
All statistical analyses were done using GraphPad Prism.
The assay was stopped after 6 hrs and the presence of caspase was measured using the Promega Caspase-Glo® 3/7 Assay.

A549 cells = test: A549 Cell Proliferation Assay (MTT); assay type: cell-based; conditions: Homo sapiens, A549, 72 h, read-out: IC50 Value (μM) A549 Cells
Method: Cell proliferation is determined using the MTT assay. The MTT cell proliferation assay is a colorimetric assay system which measures the reduction of a tetrazolium component (MTT) into an insoluble formazan product by the mitochondria of viable cells. After incubation of the cells with the MTT reagent, DMSO is added to solubilize the colored crystals and the samples read at a wavelength of 560 nm. The amount of color produced is directly proportional to the number of viable cells. […] L11939) was prepared at 5 mg/ml in PBS. […] Plates were read on the PolarStar plate reader at 560 nm. […] IC50 values were calculated in GraphPad Prism using non-linear regression curve fitting. All statistical analyses was done either in GraphPad Prism or Microsoft Excel. […] Briefly, compounds are added to cells plated in 96-well plates. The cells are allowed to grow for 72 hours before MTT treatment. The effect of the compounds on cell proliferation is analyzed using GraphPad Prism. A549 cells are a non-small cell lung cancer cell line that have wild type EGFR and p53 but have point mutations in KRAS gene which transform it into an oncogene. […] SH30071.03, lot no. ATB31500), 1% Pen Strep (Gibco, cat no. […] On day 2, working solutions of compounds at 200× were prepared. […] Plates were incubated for 72 hours before analyzing them with MTT (as described above).

H1975 cells = test: H1975 Cell Proliferation Assay (MTT); assay type: cell-based; conditions: Homo sapiens, NCI-H1975, 72 h, read-out: IC50 Value (μM) H1975 Cells
Method: (§2) Cell proliferation is determined using the MTT assay. The MTT cell proliferation assay is a colorimetric assay system which measures the reduction of a tetrazolium component (MTT) into an insoluble formazan product by the mitochondria of viable cells. After incubation of the cells with the MTT reagent, DMSO is added to solubilize the colored crystals and the samples read at a wavelength of 560 nm. The amount of color produced is directly proportional to the number of viable cells.
(§3) 3-(4,5-Dimethylthiazol-2-yl)-2,5-diphenyltetrazolium Bromide (MTT) dye (Aesar, cat no. L11939) was prepared at 5 mg/ml in PBS. To each well, 20 μl of MTT solution was added to existing media and mixed thoroughly with 5 mins of gentle shaking at room temperature. Plates were incubated at 37° C., 5% CO2 for approximately 2 hrs. After 2-3 hrs incubation, media was aspirated out and plates were patted dry. […] Plates were incubated at 37° C., 5% CO2 for 10 min and mix thoroughly with 5 mins of gentle shaking at room temperature. Plates were read on the PolarStar plate reader at 560 nm. Percent (%) inhibition was calculated as 100%−(OD560 nm experimental-blank)×100%/OD560 nm control-blank. Blank=wells+serum free media+0.5% DMSO. Experimental=wells+cells+treatment+0.5% DMSO. Control=wells+cells+0.5% DMSO. IC50 values were calculated in GraphPad Prism using non-linear regression curve fitting. All statistical analyses was done either in GraphPad Prism or Microsoft Excel.
Briefly, compounds are added to cells plated in 96-well plates. The cells are allowed to grow for 72 hours before MTT treatment. The effect of the compounds on cell proliferation is analyzed using GraphPad Prism.

annexin V in A549 cells = conditions: for % Total Apoptosis: cells in early- and late-stage apoptosis; for % Relative to Reference Cpd.: reference 4.0 μM camptothecin or 1.0 μM staurosporin
Text: Assays that measure apoptosis are utilized to determine whether or not compounds can induce programmed cell death in cancer cells. Annexin V is a protein that is used to detect apoptosis by binding to phosphatidylserine expressed on membranes of dead or dying cells. Fluorescently tagged with FITC, it can he used in conjunction with 7-aminoactinomycin D to determine the percentage of cells undergoing apoptosis via flow cytometry. Cells in early apoptosis will emit an FITC signal which will eventually be replaced by the far red 7-AAD signal that is associated with cell membrane permeability due to necrosis.
In brief, for the Annexin V Assay, compounds were added to cells plated in 6-well plates. Treated cells were incubated for up to 30 hours before addition of fluorescent cell marker probes that detect the presence of annexin V. The percentage of cells undergoing apoptosis and necrosis were determined by flow cytometry.
On day 2, working solutions of compounds (at 1000×) were prepared. To 2.0 ml media/well was added 2 μl 1000× compound diluted in 100% DMSO for final DMSO concentration of 0.1%. On day 3, plates were incubated for 30 hrs. […] Cells were collected by centrifugation at 300×g for 5 min.
Resuspended cells were stored at 4° C. in the dark, until flow cytometry analysis.
For flow cytometry analysis of the Annexin V Assay, sample acquisition was on the BD LSR II manufactured by BD Biosciences, San Jose, Calif. […] 10,000 events werer collected based on a stopping gate of forward scatter vs side scatter light. Acquisition was done through BD FACS DiVa software version 6.1.1 on high flow rate (60 μL/min). Calculations were as follows: Quadrant 3=lower left=live cells; Quadrant 4=lower right=early apoptosis; Quadrant 2=upper right=late apoptosis; Quadrant 1=upper left=dead cells. Percent (%)Total apoptosis was calculated as early (quadrant 4)+late (quadrant 2). Percent (%) ratio apoptosis was calculated as (experimental-No treatment/positive control)*100. All statistical analyses are done using GraphPad Prism or Microsoft Excel.

HT-29 cells = test: HT-29 Cell Proliferation Assay (MTT); assay type: cell-based; conditions: for IC50: Homo sapiens
Method: as §2, §3
Briefly, compounds are added to cells plated in 96-well plates. […] The effect of the compounds on cell proliferation is analyzed using GraphPad Prism.
HT-29 cells are a colon cancer cell line that is utilized to assess the ability of compounds to inhibit the proliferation of cells in tumors of the colon.
For the HT-29 cell proliferation assay, on day 1, HT-29 cells are seeded at 3,000 cells/well in 100 μl media containing 10% FBS, 1× Pen-Strep, and 1× L-Glutamine in 96 well, tissue culture-treated plates. […] Working solutions of compounds were prepared (at […] in 100% DMSO). To 200 μl media, 20 μl of a 5× compound (diluted in plain media) was added for a final DMSO concentration of 0.5%. […] On day 5, plates were analyzed for cell growth using the MTT assay.

[5] = system: DNA fragmentation in A549 cells; test: DNA Fragmentation Assay (Cell Death Detection ELISA); assay type: cell-based
[6] = Combination Index with Iressa at 90% inhibition
[7] = Combination Index with Tykerb at 90% inhibition
[8] = HT-29, 72 h, read-out: IC50 Value (μM) HT-29 Cells
[9] = Homo sapiens, A549, 24 h, read-out: % Increase over Background
[10] = Homo sapiens, A549, read-out: % Increase Relative to Staurosporin

Compound	HLM % Remaining@ 30 Min [1] [%]	MLM % Remaining@ 30 Min [2] [%]	Emax at 8 µM [4] [%]	Emax at 16 µM [4] [%]	Ability to Synergize with Tarceva [4]	IC50 (A549 cells) [µM]	IC50 (H1975 cells) [µM]	IC50 (HT-29 cells; [8]) [µM]	further results
Cc1cccc(NC(c2ccc(C(F)(F)F)cc2)c2ccc3cccnc3c2O)n1 (centres unmarked) [AD4-10628]	45	3	–	–	–	–	–	–	CI @ ED90 [3, 6]: 0.91; CI @ ED90 [3, 7]: 0.55; synergy with Tykerb ([3]; based on CI value): significant synergy; IC50 ([3]; read-out: IC50 Iressa + Compound (nM)): 93 nM
Cc1ccc2c(C)nc(Nc3nc(-c4ccccc4C)cc(=O)[nH]3)nc2c1 [AD4-11511]	6	6	–	–	–	–	–	–	CI @ ED90 [3, 6]: 0.93; CI @ ED90 [3, 7]: 0.87; shift in Tykerb's dose-response curve ([3]; in combination with Tykerb): leftward shift (i.e., greater potency); IC50 ([3]; read-out: IC50 Iressa + Compound, Iressa combined with the compound at a fixed constant ratio, MTT assay): 245 nM; IC50 ([3]; read-out: IC50 Tykerb + Compound, Tykerb combined with the compound at a fixed constant ratio, MTT assay): 118 nM
Cc1ccnc(NC(c2cc(Cl)cc(Cl)c2Cl)c2ccc3cccnc3c2O)c1 (centres unmarked) [AD4-13072]	–	–	38	49	+++ (0.3-0.7 Synergism)	0.15	0.29	–	–
Cc1cc(Cl)cnc1NC(c1cccc(Cl)c1Cl)c1ccc2cccnc2c1O (centres unmarked) [AD4-13147]	98	44	–	–	–	0.11	0.29	0.77	% Total Apoptosis (annexin V in A549 cells; 1 μM, A549 cells): 29%; % Total Apoptosis (annexin V in A549 cells; 10 μM, A549 cells): 28%
Oc1c(C(Nc2ncc(F)cc2F)c2cc(Cl)cc(Cl)c2Cl)ccc2cccnc12 (centres unmarked) [AD4-13181]	–	–	43	47	++ (0.7-0.85 Moderate synergism)	0.12	0.58	–	–
Oc1c(C(Nc2cc(Cl)c(Cl)cn2)c2ccc(F)cc2Cl)ccc2cccnc12 (centres unmarked) [AD4-13185]	98	57	–	–	–	0.18	0.23	1.2	apoptosis, share of the cell population (annexin V in A549 cells; 1 μM, A549 cells, FIG. 16B): greater than 50%; % Total Apoptosis (annexin V in A549 cells; 1 μM, A549 cells): 42%; % Relative to Reference Cpd. (annexin V in A549 cells; 1 μM): 161%; late apoptosis, share of the cell population (annexin V in A549 cells; 10 μM, A549 cells, FIG. 16B): up to 20%; % Total Apoptosis (annexin V in A549 cells; 10 μM, A549 cells): 30%; % Relative to Reference Cpd. (annexin V in A549 cells; 10 μM): 202%; apoptotic activity ([5]; Caspase, DNA Fragmentation, Annexin-V): increased apoptotic activity
Cc1c(Cl)cnc(NC(c2ccc(Cl)cc2Cl)c2ccc3cccnc3c2O)c1F (centres unmarked) [AD4-13199]	100	63	–	–	–	0.12	0.16	0.75	activation at 1 µM [5, 9]: 130%; activation at 10 µM [5, 9]: 492%; Emax at 1 µM [5, 10]: 15%; Emax at 10 µM [5, 10]: 55%
CCc1cc(Cl)cnc1NC(c1cccc(Cl)c1Cl)c1ccc2cccnc2c1O (centres unmarked) [AD4-13215]	–	–	20	27	++ (0.7-0.85 Moderate synergism)	0.16	–	0.97	–
Cc1nc(NC(c2cc(Cl)ccc2Cl)c2ccc3cccnc3c2O)c(Cl)cc1Cl (centres unmarked) [AD4-13220]	–	–	32	40	+ (0.85-0.9 Slight synergism)	0.12	–	3.3	–
C#Cc1cccc(Nc2ncnc3cc(OCCOC)c(OCCOC)cc23)c1 [Tarceva, reference compound]	–	–	–	–	–	–	–	–	HT-29 Cell Proliferation Assay Results (IC50) (HT-29 cells): No Effect; IC50 (HT-29 cells; HT-29, 72 h, read-out: IC50, Comparison of Incubation Times in HT-29 Cell Proliferation Assay): 15 µM; IC50 (HT-29 cells; HT-29, read-out: IC50 from dose-response curves of FIG. 11, HT-29 cells): 12 µM; synergy with Tykerb [3]: did not produce synergistic effects
